Reference: patent US5250424A, “Processes for preparing novel squalene synthetase inhibitors” (Merck & Co., Inc., priority 1992, dated 1993)

Test system: squalene synthetase
Test: Squalene synthetase assay (rat liver microsomes, [4-14C]farnesyl pyrophosphate)
Assay type: biochemical
Conditions: C18 HPLC fractions of Curvularia lunata (MF5573 or MF5572) fermentation extract, shown to contain Compound (I)
Description: Male, Charles River CD rats (120 to 150 g) were fed a diet containing 0.1% lovastatin for 4 days. The livers from these rats were homogenized in 5 volumes (mL/g) of ice cold 50 mm HEPES (4-(2-hydroxyethyl)-1-piperazine-ethanesulfonic acid), 5 mm EDTA(ethylenediaminetetraacetic acid) pH 7.5 with a Potter-Elvehjem type tissue grinder. The homogenate was centrifuged twice at 20,000×g for 15 min. at 4° C., discarding the pellet each time. The supernatant was then centrifuged at 100,000×g for 1 hr. at 4° C. The resulting microsomal pellet was resuspended in a volume of the above homogenizing buffer equal to one-fifth the volume of the original homogenate. This microsomal preparation has a protein concentration of about 7 mg/ml. The microsomal suspensions were stored in aliquots at -70° C. Squalene synthetase activity in these aliquots is stable for at least several months.
SQUALENE SYNTHETASE ASSAY
Reactions were performed in 16×125 mm screw cap test tubes. A batch assay mix was prepared from the following solution:
This assay mix was degassed under a vacuum and flushed with N2. […] Ten mL of scintillation fluid was added to the heptane solution and radio-activity was determined by liquid scintillation counting.
Percent inhibition is calculated by the formula: [formula]

C=C(CCC12OC(C(=O)O)C(O)(C(=O)O)C(C(=O)O)(O1)C(OC(=O)/C=C/C(C)CC(C)CC)C2O)C(OC(C)=O)C(C)Cc1ccccc1 (stereo not shown) [Compound (I)]
activity in the squalene synthetase assay: active
